These results are taken from ChEMBL document CHEMBL5338816, “Discovery of Dimethyl Shikonin Oxime 5a, a Potent, Selective Bombesin Receptor Subtype-3 Agonist for the Treatment of Type 2 Diabetes Mellitus” (J Med Chem, 2023).

The target in data set [1] is T1, Bombesin receptor subtype-3 (Mus musculus, UniProt O54798).
T1 sequence (O54798 whole entry): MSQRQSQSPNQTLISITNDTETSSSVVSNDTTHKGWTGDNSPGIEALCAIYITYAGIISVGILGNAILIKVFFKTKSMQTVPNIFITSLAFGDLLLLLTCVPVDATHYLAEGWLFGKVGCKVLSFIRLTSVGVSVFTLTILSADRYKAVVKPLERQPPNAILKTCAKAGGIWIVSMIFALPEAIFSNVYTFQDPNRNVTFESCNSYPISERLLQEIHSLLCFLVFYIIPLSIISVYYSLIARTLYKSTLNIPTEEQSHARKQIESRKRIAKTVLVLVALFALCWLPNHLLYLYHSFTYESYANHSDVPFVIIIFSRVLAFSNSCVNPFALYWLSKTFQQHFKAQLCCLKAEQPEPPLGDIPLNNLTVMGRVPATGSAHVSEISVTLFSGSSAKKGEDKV
The experiment in a line: Agonist activity at endogenous mouse BB3 in mouse B16 cells assessed as increase in IP-1 accumulation incubated for 60 mins by HTRF assay. The format is functional, cell-based. Background: Time-resolved FRET reads energy transfer from a long-lived donor to a nearby acceptor.

In data set [2] the target is T1, Bombesin receptor subtype-3. The experiment in a line: Agonist activity at mouse BB3 stably overexpressed in human HEK cells assessed as increase in intracellular calcium response and measured for 3 mins by FLIPR calcium 6 assay. In kind it is functional, cell-based. For orientation: A change in cytosolic calcium serves as a functional read-out for many receptors and channels.

Data set [3] deals with T2, Bombesin receptor subtype-3 (Homo sapiens, UniProt P32247).
T2 sequence (P32247 whole entry): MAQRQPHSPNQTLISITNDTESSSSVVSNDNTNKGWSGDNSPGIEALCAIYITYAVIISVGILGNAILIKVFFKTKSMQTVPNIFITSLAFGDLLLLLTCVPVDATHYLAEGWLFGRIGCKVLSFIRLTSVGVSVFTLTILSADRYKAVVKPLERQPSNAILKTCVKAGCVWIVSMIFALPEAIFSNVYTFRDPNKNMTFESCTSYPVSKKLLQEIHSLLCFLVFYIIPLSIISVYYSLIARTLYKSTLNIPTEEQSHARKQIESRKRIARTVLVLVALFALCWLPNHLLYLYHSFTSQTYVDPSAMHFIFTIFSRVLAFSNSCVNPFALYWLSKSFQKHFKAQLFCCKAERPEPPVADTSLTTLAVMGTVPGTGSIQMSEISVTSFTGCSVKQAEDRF
The experiment in a line: Agonist activity at human BB3 stably overexpressed in human NCI-H1299 cells assessed as increase in IP-1 accumulation incubated for 60 mins by HTRF assay. The format is functional, cell-based.

Data set [4] deals with T1, Bombesin receptor subtype-3. The experiment in a line: Agonist activity at mouse BB3 stably overexpressed in human HEK cells assessed as increase in IP-1 accumulation incubated for 60 mins by HTRF assay. In kind it is functional, cell-based.
Data set [5] has as its target T2, Bombesin receptor subtype-3. The experiment in a line: Agonist activity at human BB3 stably overexpressed in human NCI-H1299 cells assessed as increase in intracellular calcium response and measured for 3 mins by FLIPR calcium 6 assay. In kind it is functional, cell-based.
Data set [6] deals with T3, Neuromedin-B receptor (Homo sapiens, UniProt P28336). The experiment in a line: Agonist activity at human BB1 in human HEK293T cells assessed as increase in intracellular calcium response and measured for 3 mins by FLIPR calcium 6 assay. In kind it is functional, cell-based.
Target sequence in this assay (P28336 whole entry): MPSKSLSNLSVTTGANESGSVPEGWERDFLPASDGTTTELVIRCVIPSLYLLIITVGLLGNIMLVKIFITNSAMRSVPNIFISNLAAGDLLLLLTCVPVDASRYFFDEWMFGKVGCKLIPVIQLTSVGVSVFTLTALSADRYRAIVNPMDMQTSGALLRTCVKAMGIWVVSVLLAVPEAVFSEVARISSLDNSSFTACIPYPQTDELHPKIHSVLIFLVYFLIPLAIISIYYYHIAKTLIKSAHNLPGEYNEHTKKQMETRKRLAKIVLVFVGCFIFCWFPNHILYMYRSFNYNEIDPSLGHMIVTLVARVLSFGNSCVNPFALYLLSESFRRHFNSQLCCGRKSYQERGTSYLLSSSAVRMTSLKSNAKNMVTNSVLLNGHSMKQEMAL
A short description of data set [7]: Agonist activity at human BB3 in human HEK293T cells assessed as increase in intracellular calcium response and measured for 3 mins by FLIPR calcium 6 assay. The format is cell-based. Particulars: HEK-293T, 0.05 h.
Data set [8] deals with Mus musculus. The experiment in a line: Antidiabetic activity in five hrs fasted BB3 knockout C57BL/6 mouse assessed as reduction in blood glucose level at 30 mg/kg,po pretreated with compound for 30 mins and followed by […] and measured upto 120 mins by OGTT. The format is functional, organism-based. Particulars: time 150.0 min.
In data set [9] the target is T4, Bombesin receptor subtype-3 (Rattus norvegicus, UniProt Q8K418).
T4 sequence (Q8K418 whole entry): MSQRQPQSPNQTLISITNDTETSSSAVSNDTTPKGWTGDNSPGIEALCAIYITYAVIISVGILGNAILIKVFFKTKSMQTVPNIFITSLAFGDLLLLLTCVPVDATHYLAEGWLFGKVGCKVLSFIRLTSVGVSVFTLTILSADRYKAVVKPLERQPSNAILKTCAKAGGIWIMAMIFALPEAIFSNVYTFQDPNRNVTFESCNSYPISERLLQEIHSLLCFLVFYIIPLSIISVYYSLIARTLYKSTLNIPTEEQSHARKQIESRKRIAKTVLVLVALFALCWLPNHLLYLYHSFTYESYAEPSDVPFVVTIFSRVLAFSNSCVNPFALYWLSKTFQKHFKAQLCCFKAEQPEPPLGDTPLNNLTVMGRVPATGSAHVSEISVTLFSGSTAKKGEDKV
The experiment in a line: Agonist activity at rat BB3 transiently expressed in human HEK293T cells assessed as increase in IP-1 accumulation incubated for 60 mins by HTRF assay. In kind it is functional, cell-based.

Data set [10] deals with Mus musculus. The experiment in a line: Antidiabetic activity in fourteen hour fasted type 2 diabetic db/db mouse assessed as increase in PPRE expression in white adipose tissue at 10 mg/kg, po for 4 weeks by Western blot analysis. In kind it is functional, organism-based.
The subject of data set [11] is Mus musculus. The experiment in a line: Antidiabetic activity in fourteen hour fasted type 2 diabetic db/db mouse assessed as decrease in gamma-GT level at 10 mg/kg,po for 4 weeks by BS-360S analyzer. In kind it is functional, organism-based.
Data set [12] concerns Mus musculus. The experiment in a line: Antidiabetic activity in five hrs fasted wild type C57BL/6 mouse assessed as reduction in blood glucose level at 3 to 30 mg/kg,po pretreated with compound for 30 mins and followed by […] and measured upto 120 mins by OGTT. The format is functional, organism-based. Conditions: dose upper 30.0 mg/kg, time 150.0 min.

For data set [13], the system named is Mus musculus. The experiment in a line: Antidiabetic activity in fourteen hour fasted type 2 diabetic db/db mouse assessed as reduction of blood glucose excursion at 10 mg/kg,po for 2 weeks followed by […] and measured upto 120 mins by OGTT. The format is functional, organism-based.
The test system of data set [14] is Mus musculus. The experiment in a line: Antidiabetic activity in fourteen hour fasted type 2 diabetic db/db mouse assessed as decrease in fasting blood glucose level at 10 mg/kg,po for 4 weeks by Glucose analyzer. In kind it is functional, organism-based.
Data set [15] deals with HEK293T. The experiment in a line: Agonist activity at human BB3 in human HEK293T cells assessed as increase in intracellular calcium response at 10 uM and measured for 3 mins by FLIPR calcium 6 assay. The format is cell-based.
In data set [16] the test system is Mus musculus. The experiment in a line: Antidiabetic activity in fourteen hour fasted type 2 diabetic db/db mouse assessed as decrease in HOMA-IR level at 10 mg/kg,po for 4 weeks. In kind it is functional, organism-based.
Data set [17] can be described thus: Drug concentration in […] mouse cerebrospinal fluid at 50 mg/kg,po and measured upto 480 mins by LC-MS/MS analysis. In kind it is ADME, organism-based. Conditions: read-out: Ct.
For data set [18], the system named is Mus musculus. The experiment in a line: Antidiabetic activity in fourteen hour fasted type 2 diabetic db/db mouse assessed as decrease in glycosylated serum protein at 10 mg/kg,po for 4 weeks. In kind it is functional, organism-based.
In data set [19] the target is T3, Neuromedin-B receptor. The experiment in a line: Agonist activity at human BB1 in human HEK293T cells assessed as increase in intracellular calcium response at 10 uM and measured for 3 mins by FLIPR calcium 6 assay. In kind it is functional, cell-based.
Target sequence in this assay (P28336 whole entry, looked up): as the sequence (P28336 whole entry) above
Data set [20] can be described thus: Dissociation constant, pKa of the compound. In kind it is physicochemical.
Data set [21] concerns the target T2, Bombesin receptor subtype-3. The experiment in a line: Agonist activity at human BB3 transiently expressed in human HEK293T cells assessed as increase in IP-1 accumulation incubated for 60 mins by HTRF assay.
Data set [22] concerns Mus musculus. The experiment in a line: Antidiabetic activity in fourteen hour fasted type 2 diabetic db/db mouse assessed as decrease in ALT level at 10 mg/kg,po for 4 weeks by BS-360S analyzer. The format is functional, organism-based.

SMILES strings stand for the structures. Activity calls are given as the source filed them. The rule behind the calls is not given here.

A word on the EC50: it is the concentration that produces a half-maximal response. In the case of `O[C@@](Cc1nc(CC2(C(F)(F)F)CC2)c[nH]1)(c1ccc(-n2cccn2)cc1)C(F)(F)F`, the concentration for a half-maximal effect (EC50) is 0.0135 µM in data set [1]; 0.00299 µM in data set [2]; 0.000211 µM in data set [3]; 0.000421 µM in data set [4]; 0.000293 µM in [5].
Take `C=CC(C)(C)C(OC(=O)c1ccc(C=O)cc1)c1cc(OC)c2c(c1OC)/C(=N/O)C=C/C2=N\O` (centres undefined): the EC50 in data set [3] was 0.311 µM.
On the same count and under the same terms, the figure for `C=CC(C)(C)C(OC(=O)c1cncc(F)c1)c1cc(OC)c2c(c1OC)/C(=N/O)C=C/C2=N\O` (centres undefined) is 0.06 µM; for `COc1cc(C(CC=C(C)C)OCCC(C)C)c(OC)c2c1/C(=N/OC(=O)c1ccccc1)C=C/C2=N\OC(=O)c1ccccc1` (centres undefined) it is more than 10 µM; for `C=CC(C)(C)C(OCCCCO)c1cc(OC)c2c(c1OC)/C(=N/O)C=C/C2=N\O` (centres undefined) it is 0.226 µM.
Still for that read-out and setting: then `C=CC(C)(C)C(OC(=O)c1ccc(C)cc1)c1cc(OC)c2c(c1OC)/C(=N/O)C=C/C2=N\O` (centres undefined), with 0.0817 µM.
For `COc1cc(C(O)CC=C(C)C)c(OC)c2c1/C(=N/O)C=C/C2=N\O` (centres undefined), the 50% effective concentration (EC50) was 0.78 µM in data set [2], 3.4 µM in data set [3], 0.624 µM in data set [4] and 2.38 µM in [5].
For `C=CC(C)(C)C(OC(C)=O)c1cc(OC)c2c(c1OC)/C(=N/O)C=C/C2=N\O` (centres undefined), the EC50 in data set [3] is more than 1 µM.
Still for that read-out and setting: then `C=CC(C)(C)C(OC(=O)c1cccnc1)c1cc(OC)c2c(c1OC)/C(=N/O)C=C/C2=N\O` (centres undefined), with 0.0157 µM.
Same read-out and setting: then `C=CC(C)(C)C(OC(=O)C1CCCO1)c1cc(OC)c2c(c1OC)/C(=N/O)C=C/C2=N\O` (centres undefined), with 0.135 µM; and `C=CC(C)(C)C(OC(=O)CC(C)C)c1cc(OC)c2c(c1OC)/C(=N/O)C=C/C2=N\O` (centres undefined), with 0.0525 µM; and `C=CC(C)(C)C(OCCCCCO)c1cc(OC)c2c(c1OC)/C(=N/O)C=C/C2=N\O` (centres undefined), with 0.776 µM.
For the compound `COc1cc(C(CC=C(C)C)OCCC(C)C)c(OC)c2c1/C(=N/O)C=C/C2=N\O` (centres undefined), the EC50 in [3] is 0.52 µM.
Same read-out and setting: then `C=CC(C)(C)C(OC(=O)c1ccccn1)c1cc(OC)c2c(c1OC)/C(=N/O)C=C/C2=N\O` (centres undefined), with 0.0147 µM.
Still for that read-out and setting: the figure for `C=CC(C)(C)C(O)c1cc(OC)c2c(c1OC)/C(=N/O)C=C/C2=N\O` (centres undefined) is more than 10 µM.
As for `CCCC[C@H](NC(=O)[C@H](Cc1ccccc1)NC(=O)[C@H](Cc1c[nH]cn1)NC(=O)CNC(=O)[C@@H](NC(=O)[C@H](C)NC(=O)[C@H](Cc1c[nH]c2ccccc12)NC(=O)[C@H](CCC(N)=O)NC(=O)[C@H](N)Cc1ccccc1)C(C)C)C(N)=O`, the 50% effective concentration (EC50) was 0.000155 µM in [6] and 0.000405 µM in data set [7].
Consider `C=CC(C)(C)C(OCCCO)c1cc(OC)c2c(c1OC)/C(=N/O)C=C/C2=N\O` (centres undefined), for which the EC50 in data set [3] is more than 10 µM.
On the same count and under the same terms, the figure for `C=CC(C)(C)C(OC(=O)c1cccnc1Br)c1cc(OC)c2c(c1OC)/C(=N/O)C=C/C2=N\O` (centres undefined) is 0.101 µM.
Same read-out and setting: the figure for `COc1cc(C(CC=C(C)C)OC(=O)CC(C)C)c(OC)c2c1/C(=N/O)C=C/C2=N\O` (centres undefined) is 0.822 µM; for `C=CC(C)(C)C(OC(=O)c1ccccc1)c1cc(OC)c2c(c1OC)/C(=N/O)C=C/C2=N\O` (centres undefined) it is 0.00479 µM; for `C=CC(C)(C)C(OC(=O)c1ccncc1)c1cc(OC)c2c(c1OC)/C(=N/O)C=C/C2=N\O` (centres undefined) it is 0.277 µM.
The term pKa denotes the pH at which an ionisable group is half protonated. For `C=CC(C)(C)C(OC(=O)c1ccco1)c1cc(OC)c2c(c1OC)/C(=N/O)C=C/C2=N\O` (centres undefined), the outcome in [8], in [15] and in data set [19] was inactive. Also, the EC50 in data set [9] is 0.00611 µM; in data set [1], 0.00044 µM; in data set [2], 0.067 µM; in [3], 0.00378 µM; in [4], 0.0547 µM; in [5], 0.0109 µM. In addition, in data set [21], the EC50 was 0.149 µM. Moreover, the outcome in data set [10], in [11], in [13], in data set [14], in data set [16] and in data set [18] was Active. The result in data set [22] was Active. The Activity entry in data set [12] was “Dose-Dependent Effect”. For the same compound, the concentration at 8 h in data set [17] was less than 0.05 ng/mL. Further, the pKa in [20] is more than 10.2.
